Test: exhalation test (13CO2/12CO2, carbon dioxide gas Δ value) after oral administration to beagle dogs

excretion of labeled carbon dioxide gas from the body, in words (male beagle dogs without propantheline, n=4, FIG. 4) | time of maximum of the carbon dioxide gas Δ value, in words (male beagle dogs, n=4, control test, 100 mg NaH13CO3, FIG. 4) | Compound | excretion of labeled carbon dioxide gas in the exhalation in the group receiving propantheline versus untreated group (beagle dogs given the capsule of Example 8 granules after propantheline, n=4)
 |  | CC(C)[N+](C)(CCOC(=O)C1c2ccccc2Oc2ccccc21)C(C)C [propantheline] | slow compared to that seen in the beagle dogs of the untreated group
rapidly excreted from the body | immediately after administration | O=C([O-])O.[Na+] [sodium hydrogencarbonate solution, sodium hydrogencarbonate] | 

— patent US7018613B2, “Preparations for evaluating eliminative ability of stomach” (Otsuka Pharmaceutical Co., Ltd., priority 2000, dated 2006)
